From US10160755B2 (Plexxikon Inc., priority 2015, dated 2018)

The molecules below were run against T1, FLT3-ITD (Homo sapiens, UniProt P36888) (assay: FLT3-ITD biochemical kinase assay (AlphaScreen)).
T1 construct: FLT3-ITD; Invitrogen #PV6190
T1 sequence (P36888 1-993): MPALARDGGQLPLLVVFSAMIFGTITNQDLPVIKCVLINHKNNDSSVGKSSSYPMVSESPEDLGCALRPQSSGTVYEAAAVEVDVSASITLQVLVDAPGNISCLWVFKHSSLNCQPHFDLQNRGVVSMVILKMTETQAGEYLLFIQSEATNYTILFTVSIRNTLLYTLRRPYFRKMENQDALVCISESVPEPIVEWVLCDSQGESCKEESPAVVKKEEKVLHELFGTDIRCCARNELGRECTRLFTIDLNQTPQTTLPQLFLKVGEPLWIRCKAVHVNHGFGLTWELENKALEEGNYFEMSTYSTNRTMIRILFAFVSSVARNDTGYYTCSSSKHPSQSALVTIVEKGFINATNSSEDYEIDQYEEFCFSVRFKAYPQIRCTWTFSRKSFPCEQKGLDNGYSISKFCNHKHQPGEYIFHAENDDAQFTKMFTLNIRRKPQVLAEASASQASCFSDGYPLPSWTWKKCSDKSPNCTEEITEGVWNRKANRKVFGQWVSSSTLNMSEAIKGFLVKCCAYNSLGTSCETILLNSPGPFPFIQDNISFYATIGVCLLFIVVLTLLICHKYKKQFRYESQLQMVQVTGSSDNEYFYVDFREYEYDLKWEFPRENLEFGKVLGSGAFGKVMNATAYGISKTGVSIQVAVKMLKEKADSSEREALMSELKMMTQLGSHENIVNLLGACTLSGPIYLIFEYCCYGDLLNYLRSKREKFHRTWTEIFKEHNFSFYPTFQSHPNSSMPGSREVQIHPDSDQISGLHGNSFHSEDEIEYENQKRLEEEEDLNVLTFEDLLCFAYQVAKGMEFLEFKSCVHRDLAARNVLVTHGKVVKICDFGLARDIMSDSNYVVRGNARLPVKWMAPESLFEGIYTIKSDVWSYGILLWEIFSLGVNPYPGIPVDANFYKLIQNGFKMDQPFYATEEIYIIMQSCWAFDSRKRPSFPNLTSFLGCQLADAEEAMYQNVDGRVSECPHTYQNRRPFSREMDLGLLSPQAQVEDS
Text: (§1) In order to determine the effect of compounds on FLT3 catalytic activity, kinase assays using recombinant enzymes and AlphaScreen® technology have been established. When the kinases are catalytically active, they phosphorylate a biotinylated peptide substrate on tyrosine residues. Using AlphaScreen® technology, the ability of the compounds to affect the catalytic activity of the kinases can be measured quantitatively. The peptide substrate is immobilized by the AlphaScreen® Streptavidin Donor beads and, upon phosphorylation by a tyrosine kinase, can bind to AlphaScreen® Anti-Phosphotyrosine (PY20) Acceptor beads. Upon excitation of these beads with laser light at 680 nm, singlet oxygen is produced. This singlet oxygen is rapidly quenched, unless the AlphaScreen® Anti-Phosphotyrosine (PY20) Acceptor beads are in close proximity, in which case a proximity signal can be measured at 580 nm. In the presence of catalytic activity, there is a very strong proximity signal. Selective kinase inhibitors affect a decrease in this proximity signal through a decrease in tyrosine phosphorylation of the peptide substrate.
(§2) Substrate • Poly (Glu4-Tyr) Peptide, biotin conjugate [Biotin-GG(EEEEY)10EE (SEQ ID NO: 4)] • UBI/Millipore #12-440 • Final concentration=30 nM
(§3) Adenosine Triphosphate (ATP) • Sigma #A-3377 • Final concentration for IC50 determination=10 μM (FLT3-D835Y) or 100 μM (FLT3 or FLT3-ITD) • Detection Reagent • AlphaScreen® Phosphotyrosine (PY20) Assay Kit • Perkin-Elmer #6760601M • Final concentration=10 μg/mL
(§4) Centrifuge 1 minute, shake to mix, and incubate as follows:
(§5) • Mix Streptavidin Donor beads at 6× final concentration in Stop/Detection buffer. • Add 5 μL Streptavidin Donor beads to the reaction plate. Centrifuge 1 minute, shake to mix, and incubate at room temperature for 20 minutes. • Mix Anti-Phosphotyrosine (PY20) Acceptor beads at 6× final concentration in Stop/Detection buffer. • Add 5 μL Anti-Phosphotyrosine (PY20) beads to the reaction plate. • Centrifuge 1 minute, shake to mix, and incubate at room temperature for 60 minutes. • Read plate on Wallac EnVision™ 2103 Multilabel Reader. In Vivo Model System Testing
CC(C)(C)n1cnc2ccc(-c3c[nH]c4ncc(-c5cnc(C#N)nc5)cc34)cc21 [P-396, 5-[3-(3-tert-butylbenzimidazol-5-yl)-1H-pyrrolo[2,3-b]pyridin-5-yl]pyrimidine-2-carbonitrile] was tested, and the IC50 was 0.0001 to 1 µM. Work on COc1cc(-c2cnc3[nH]cc(-c4ccc5ncn(C(C)(C)C)c5c4)c3c2)ccc1C#N [P-372, 4-[3-(3-tert-butylbenzimidazol-5-yl)-1H-pyrrolo[2,3-b]pyridin-5-yl]-2-methoxy-benzonitrile] yielded an IC50 of 0.0001 to 1 µM. Molecule Cc1ncc(-c2cnc3[nH]cc(-c4ccc5ncn(C(C)(C)C)c5c4)c3c2)cc1C#N [P-391, 5-[3-(3-tert-butylbenzimidazol-5-yl)-1H-pyrrolo[2,3-b]pyridin-5-yl]-2-methyl-pyridine-3-carbonitrile] has an IC50 of 0.0001 to 1 µM. In the case of CC(C)(C)n1cnc2ccc(-c3c[nH]c4ncc(-c5cnc(NC6CC6)nc5)cc34)cc21 [P-400, 5-[3-(3-tert-butylbenzimidazol-5-yl)-1H-pyrrolo[2,3-b]pyridin-5-yl]-N-cyclopropyl-pyrimidin-2-amine], the IC50 is reported as 0.0001 to 1 µM. In the case of C=CCS(=O)(=O)Nc1cccc(-c2cnc3[nH]cc(-c4ccc5ncn(C(C)(C)C)c5c4)c3c2)c1 [P-375, N-[3-[3-(3-tert-butylbenzimidazol-5-yl)-1H-pyrrolo[2,3-b]pyridin-5-yl]phenyl]prop-2-ene-1-sulfonamide], the IC50 is reported as 0.0001 to 1 µM. Molecule COCCOc1cncc(-c2cnc3[nH]cc(-c4ccc5ncn(C(C)(C)C)c5c4)c3c2)c1 [P-368, 1-tert-butyl-6-[5-[5-(2-methoxyethoxy)-3-pyridyl]-1H-pyrrolo[2,3-b]pyridin-3-yl]benzimidazole] has an IC50 of 0.0001 to 1 µM. With CC(C)(C)n1cnc2ccc(-c3c[nH]c4ncc(-c5cnc(C(=O)O)nc5)cc34)cc21 [P-402, 5-[3-(3-tert-butylbenzimidazol-5-yl)-1H-pyrrolo[2,3-b]pyridin-5-yl]pyrimidine-2-carboxylic acid] the IC50 was 0.0001 to 1 µM. For Cc1cc(-c2cnc3[nH]cc(-c4ccc5ncn(C(C)(C)C)c5c4)c3n2)ccn1 [P-403, 7-(3-tert-butylbenzimidazol-5-yl)-2-(2-methyl-4-pyridyl)-5H-pyrrolo[2,3-b]pyrazine], the IC50 was 0.0001 to 1 µM.

These molecules were tested against T2, FLT3-D835Y (Homo sapiens, UniProt P36888, D835Y) (assay: FLT3-D835Y biochemical kinase assay (AlphaScreen)).
T2 construct: purchased Invitrogen PV3967
T2 sequence (P36888 27-993 D835Y): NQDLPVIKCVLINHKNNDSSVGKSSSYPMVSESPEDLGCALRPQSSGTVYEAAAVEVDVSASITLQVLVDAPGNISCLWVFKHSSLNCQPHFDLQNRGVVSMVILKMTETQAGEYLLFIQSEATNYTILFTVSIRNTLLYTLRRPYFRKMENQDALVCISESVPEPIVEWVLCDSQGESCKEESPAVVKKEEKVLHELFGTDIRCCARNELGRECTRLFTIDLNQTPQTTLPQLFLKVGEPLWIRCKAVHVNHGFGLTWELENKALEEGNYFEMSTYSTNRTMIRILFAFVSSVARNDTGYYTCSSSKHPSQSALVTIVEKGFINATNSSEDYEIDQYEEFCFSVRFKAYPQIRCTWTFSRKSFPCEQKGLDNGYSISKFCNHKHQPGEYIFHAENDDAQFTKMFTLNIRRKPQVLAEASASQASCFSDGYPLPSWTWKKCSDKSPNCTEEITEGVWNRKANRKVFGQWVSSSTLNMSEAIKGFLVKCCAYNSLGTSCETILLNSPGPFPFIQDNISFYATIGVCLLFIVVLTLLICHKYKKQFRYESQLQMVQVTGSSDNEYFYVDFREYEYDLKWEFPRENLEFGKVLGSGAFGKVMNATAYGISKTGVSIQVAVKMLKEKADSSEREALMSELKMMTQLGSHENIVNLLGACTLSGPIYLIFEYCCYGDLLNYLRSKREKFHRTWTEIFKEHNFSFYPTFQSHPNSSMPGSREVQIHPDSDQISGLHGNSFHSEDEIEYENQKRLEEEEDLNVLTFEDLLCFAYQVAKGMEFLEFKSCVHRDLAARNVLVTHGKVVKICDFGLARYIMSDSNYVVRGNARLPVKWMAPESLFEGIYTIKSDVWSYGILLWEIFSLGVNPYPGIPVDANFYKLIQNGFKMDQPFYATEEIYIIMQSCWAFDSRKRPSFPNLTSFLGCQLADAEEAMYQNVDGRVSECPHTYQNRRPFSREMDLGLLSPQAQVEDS
Text: as §1, §2, §3, §4, §5
In the case of COc1cc(-c2cnc3[nH]cc(-c4ccc5ncsc5c4)c3n2)ccc1C#N [P-183, 4-[7-(1,3-benzothiazol-6-yl)-5H-pyrrolo[2,3-b]pyrazin-2-yl]-2-methoxy-benzonitrile], the IC50 is reported as 0.0001 to 1 µM. With COc1cc(-c2cnc3[nH]cc(-c4ccc5ncsc5c4)c3n2)cc(OC)n1 [P-172, 6-[2-(2,6-dimethoxy-4-pyridyl)-5H-pyrrolo[2,3-b]pyrazin-7-yl]-1,3-benzothiazole] the IC50 was 0.0001 to 1 µM. In the case of COc1cnc2[nH]cc(-c3ccc4[nH]ncc4c3)c2c1 [P-003, 3-(1H-indazol-5-yl)-5-methoxy-1H-pyrrolo[2,3-b]pyridine], the IC50 is reported as 1 to 10 µM. For N#Cc1cc(-c2cnc3[nH]cc(-c4ccc5ncn(-c6ccc(F)cc6)c5c4)c3c2)ccc1F [P-209, 2-fluoro-5-[3-[3-(4-fluorophenyl)benzimidazol-5-yl]-1H-pyrrolo[2,3-b]pyridin-5-yl]benzonitrile], the IC50 was 0.0001 to 1 µM. For COc1cc(-c2cnc3[nH]cc(-c4ccc5ncn(-c6ccc(F)cc6)c5c4)c3c2)cc(OC)n1 [P-198, 5-(2,6-dimethoxy-4-pyridyl)-3-[3-(4-fluorophenyl)benzimidazol-5-yl]-1H-pyrrolo[2,3-b]pyridine], the IC50 was 0.0001 to 1 µM. O=S(=O)(c1ccc(-c2cnc3[nH]cc(-c4ccc5ncsc5c4)c3n2)cc1)N1CCCC1 [P-160, 6-[2-(4-pyrrolidin-1-ylsulfonylphenyl)-5H-pyrrolo[2,3-b]pyrazin-7-yl]-1,3-benzothiazole] was tested, and the IC50 was 0.0001 to 1 µM. With COc1cc(-c2cnc3[nH]cc(-c4ccc5ncn(-c6ccc(F)cc6)c5c4)c3n2)cc(OC)n1 [P-205, 2-(2,6-dimethoxy-4-pyridyl)-7-[3-(4-fluorophenyl)benzimidazol-5-yl]-5H-pyrrolo[2,3-b]pyrazine] the IC50 was 0.0001 to 1 µM. Cn1cc(-c2cnc3[nH]cc(-c4ccc5ncsc5c4)c3n2)ccc1=O [P-182, 5-[7-(1,3-benzothiazol-6-yl)-5H-pyrrolo[2,3-b]pyrazin-2-yl]-1-methyl-pyridin-2-one] gave an IC50 of 0.0001 to 1 µM. COc1cc(-c2cnc3[nH]c(C)c(-c4ccc5ncn(C)c5c4)c3c2)ccn1 [P-112, 5-(2-methoxy-4-pyridyl)-2-methyl-3-(3-methylbenzimidazol-5-yl)-1H-pyrrolo[2,3-b]pyridine] showed an IC50 of 0.0001 to 1 µM. In the case of CC(C)(C)n1cnc2ccc(-c3c[nH]c4ncc(NS(=O)(=O)c5cccc(C#N)c5)cc34)cc21 [P-233, N-[3-(3-tert-butylbenzimidazol-5-yl)-1H-pyrrolo[2,3-b]pyridin-5-yl]-3-cyano-benzenesulfonamide], the IC50 is reported as 0.0001 to 1 µM. Cn1cnc2ccc(-c3c[nH]c4ncc(-c5ccc(Cl)c(C#N)c5)cc34)cc21 [P-140, 2-chloro-5-[3-(3-methylbenzimidazol-5-yl)-1H-pyrrolo[2,3-b]pyridin-5-yl]benzonitrile] gave an IC50 of 0.0001 to 1 µM. Cn1cnc2ccc(-c3c[nH]c4ncc(-c5ccc(S(=O)(=O)N6CCCC6)cc5)nc34)cc21 [P-148, 7-(3-methylbenzimidazol-5-yl)-2-(4-pyrrolidin-1-ylsulfonylphenyl)-5H-pyrrolo[2,3-b]pyrazine] was tested, and the IC50 was 0.0001 to 1 µM. With CC(C)S(=O)(=O)Nc1cccc(-c2cnc3[nH]cc(-c4ccc5ncsc5c4)c3n2)c1 [P-184, N-[3-[7-(1,3-benzothiazol-6-yl)-5H-pyrrolo[2,3-b]pyrazin-2-yl]phenyl]propane-2-sulfonamide] the IC50 was 0.0001 to 1 µM. For O=S(=O)(c1cccc(-c2cnc3[nH]cc(-c4ccc5ncsc5c4)c3n2)c1)N1CCCC1 [P-171, 6-[2-(3-pyrrolidin-1-ylsulfonylphenyl)-5H-pyrrolo[2,3-b]pyrazin-7-yl]-1,3-benzothiazole], the IC50 was 0.0001 to 1 µM.
